According to ChEMBL document CHEMBL4804286, “3-amino-4-(4-(4 (dimethylcarbamoyl) phenyl)-1,4-diazepan-1-yl) thieno [2,3-b] pyridine-2-carboxamide for use in cancer therapy and formulations comprising the same” (2020):
Values joined by “and” are separate entries in the source; they are usually repeats but may differ in a detail not shown here. Identical values can stand only once. Active and inactive are the calls of the source. No cut-off for these calls is given here.

Assays:
[1] = molecular target: Ephrin type-B receptor 6 (Homo sapiens) (UniProt O15197); test: Inhibition of human EPHB6 assessed as percent of control at 2000 nM by KINOMEscan assay relative to control; set-up: scale not given: the % may be the effect or the level left
Myc-CaP = test: Antitumor activity against murine castration-resistant Myc-CaP cells xenografted in male FVB mouse assessed as suppression of tumor volume in presence of enzalutamide; type: functional
[2] = molecular target: Uncharacterized serine/threonine-protein kinase SBK3 (Homo sapiens) (UniProt P0C264); test: Inhibition of human SgK110 assessed as percent of control at 2000 nM by KINOMEscan assay relative to control; set-up: scale not given: the % may be the effect or the level left
[3] = molecular target: Mitogen-activated protein kinase 11 (Homo sapiens) (UniProt Q15759); test: Inhibition of human p38-beta assessed as percent of control at 2000 nM by KINOMEscan assay relative to control; set-up: scale not given: the % may be the effect or the level left
[4] = system: Phosphatidylinositol 4,5-bisphosphate 3-kinase catalytic subunit alpha isoform (Homo sapiens), P42336 [E542K]; test: Inhibition of human PIK3CA E542K mutant assessed as percent of control at 2000 nM by KINOMEscan assay relative to control; set-up: scale not given: the % may be the effect or the level left
Sequence of Phosphatidylinositol 4,5-bisphosphate 3-kinase catalytic subunit alpha isoform (Homo sapiens), P42336 [E542K] (P42336 whole entry E542K, canonical isoform): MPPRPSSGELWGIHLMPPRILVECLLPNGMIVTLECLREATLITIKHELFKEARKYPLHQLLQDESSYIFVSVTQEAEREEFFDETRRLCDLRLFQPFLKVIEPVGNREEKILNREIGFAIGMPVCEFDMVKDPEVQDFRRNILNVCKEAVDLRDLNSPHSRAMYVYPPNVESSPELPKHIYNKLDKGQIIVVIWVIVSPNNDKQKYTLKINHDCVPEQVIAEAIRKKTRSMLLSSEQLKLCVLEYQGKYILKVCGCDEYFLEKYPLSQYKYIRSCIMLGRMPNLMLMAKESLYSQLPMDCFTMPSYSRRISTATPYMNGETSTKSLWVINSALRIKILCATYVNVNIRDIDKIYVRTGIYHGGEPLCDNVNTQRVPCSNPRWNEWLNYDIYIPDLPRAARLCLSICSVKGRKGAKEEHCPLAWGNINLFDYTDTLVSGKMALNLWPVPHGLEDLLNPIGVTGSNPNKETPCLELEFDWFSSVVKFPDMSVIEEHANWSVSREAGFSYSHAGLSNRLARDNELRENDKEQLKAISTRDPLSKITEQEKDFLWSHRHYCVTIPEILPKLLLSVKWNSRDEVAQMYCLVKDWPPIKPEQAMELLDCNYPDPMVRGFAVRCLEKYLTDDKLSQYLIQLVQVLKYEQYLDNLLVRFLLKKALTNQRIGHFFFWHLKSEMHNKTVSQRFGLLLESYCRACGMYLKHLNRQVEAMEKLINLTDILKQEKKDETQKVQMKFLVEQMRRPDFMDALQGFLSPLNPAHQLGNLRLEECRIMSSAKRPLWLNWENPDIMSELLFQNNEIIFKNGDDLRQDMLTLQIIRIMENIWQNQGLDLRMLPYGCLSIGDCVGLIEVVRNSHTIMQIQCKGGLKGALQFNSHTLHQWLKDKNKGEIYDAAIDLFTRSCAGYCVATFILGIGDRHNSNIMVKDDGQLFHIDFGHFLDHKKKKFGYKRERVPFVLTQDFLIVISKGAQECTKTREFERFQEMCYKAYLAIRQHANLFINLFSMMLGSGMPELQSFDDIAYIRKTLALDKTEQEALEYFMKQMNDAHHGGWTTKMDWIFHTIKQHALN

[5] = system: Mast/stem cell growth factor receptor Kit (Homo sapiens), P10721 [V559D]; test: Inhibition of human KIT V559D mutant assessed as percent of control at 2000 nM by KINOMEscan assay relative to control; set-up: scale not given: the % may be the effect or the level left
Sequence of Mast/stem cell growth factor receptor Kit (Homo sapiens), P10721 [V559D] (P10721 whole entry V559D): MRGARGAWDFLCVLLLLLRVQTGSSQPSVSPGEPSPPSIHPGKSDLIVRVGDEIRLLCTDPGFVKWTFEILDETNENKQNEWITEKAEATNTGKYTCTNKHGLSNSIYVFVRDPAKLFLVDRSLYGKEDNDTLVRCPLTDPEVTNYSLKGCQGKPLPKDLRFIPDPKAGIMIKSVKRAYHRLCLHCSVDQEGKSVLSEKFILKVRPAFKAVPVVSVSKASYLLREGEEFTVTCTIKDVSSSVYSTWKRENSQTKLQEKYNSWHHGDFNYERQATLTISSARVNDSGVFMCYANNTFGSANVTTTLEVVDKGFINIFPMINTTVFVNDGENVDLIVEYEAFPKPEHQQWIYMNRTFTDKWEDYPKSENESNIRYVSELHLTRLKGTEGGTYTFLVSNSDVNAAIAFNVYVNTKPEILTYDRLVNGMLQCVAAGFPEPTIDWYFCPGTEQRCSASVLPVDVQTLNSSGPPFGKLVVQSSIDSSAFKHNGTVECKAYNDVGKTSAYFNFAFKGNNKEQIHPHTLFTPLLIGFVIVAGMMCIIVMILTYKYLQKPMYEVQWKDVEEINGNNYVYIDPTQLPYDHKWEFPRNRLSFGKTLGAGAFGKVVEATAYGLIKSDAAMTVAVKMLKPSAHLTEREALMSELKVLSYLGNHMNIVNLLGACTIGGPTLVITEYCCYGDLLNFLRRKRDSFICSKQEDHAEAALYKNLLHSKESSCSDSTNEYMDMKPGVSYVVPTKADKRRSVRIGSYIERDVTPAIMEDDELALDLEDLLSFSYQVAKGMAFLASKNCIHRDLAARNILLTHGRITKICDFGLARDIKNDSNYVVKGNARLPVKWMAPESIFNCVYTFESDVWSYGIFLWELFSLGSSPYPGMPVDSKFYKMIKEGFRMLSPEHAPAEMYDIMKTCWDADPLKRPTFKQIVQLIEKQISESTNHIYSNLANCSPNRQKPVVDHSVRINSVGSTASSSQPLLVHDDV

[6] = molecular target: Tyrosine-protein kinase receptor UFO (Homo sapiens) (UniProt P30530); test: Inhibition of human AXL assessed as percent of control at 2000 nM by KINOMEscan assay relative to control; set-up: scale not given: the % may be the effect or the level left
[7] = system: Receptor-type tyrosine-protein kinase FLT3 (Homo sapiens), P36888 [UNDEFINED MUTATION]; test: Inhibition of human FLT3 ITD/D835V double mutant assessed as percent of control at 2000 nM by KINOMEscan assay relative to control; set-up: scale not given: the % may be the effect or the level left; conditions: INHIBITOR
[8] = molecular target: Serine/threonine-protein kinase DCLK3 (Homo sapiens) (UniProt Q9C098); test: Inhibition of human DCAMKL3 assessed as percent of control at 2000 nM by KINOMEscan assay relative to control; set-up: scale not given: the % may be the effect or the level left
[9] = molecular target: Ribosomal protein S6 kinase alpha-6 (Homo sapiens) (UniProt Q9UK32); test: Inhibition of human C-terminal RSK4 kinase domain 2 assessed as percent of control at 2000 nM by KINOMEscan assay relative to control; set-up: scale not given: the % may be the effect or the level left
[10] = molecular target: Serine/threonine-protein kinase TBK1 (Homo sapiens) (UniProt Q9UHD2); test: Inhibition of human TBK1 assessed as percent of control at 2000 nM by KINOMEscan assay relative to control; set-up: scale not given: the % may be the effect or the level left
[11] = molecular target: Tyrosine-protein kinase JAK3 (Homo sapiens) (UniProt P52333); test: Inhibition of human JAK3 JH1 catalytic domain assessed as percent of control at 2000 nM by KINOMEscan assay relative to control; set-up: scale not given: the % may be the effect or the level left
Sequence of Tyrosine-protein kinase JAK3 (Homo sapiens) (P52333 whole entry, the tested form may be a part): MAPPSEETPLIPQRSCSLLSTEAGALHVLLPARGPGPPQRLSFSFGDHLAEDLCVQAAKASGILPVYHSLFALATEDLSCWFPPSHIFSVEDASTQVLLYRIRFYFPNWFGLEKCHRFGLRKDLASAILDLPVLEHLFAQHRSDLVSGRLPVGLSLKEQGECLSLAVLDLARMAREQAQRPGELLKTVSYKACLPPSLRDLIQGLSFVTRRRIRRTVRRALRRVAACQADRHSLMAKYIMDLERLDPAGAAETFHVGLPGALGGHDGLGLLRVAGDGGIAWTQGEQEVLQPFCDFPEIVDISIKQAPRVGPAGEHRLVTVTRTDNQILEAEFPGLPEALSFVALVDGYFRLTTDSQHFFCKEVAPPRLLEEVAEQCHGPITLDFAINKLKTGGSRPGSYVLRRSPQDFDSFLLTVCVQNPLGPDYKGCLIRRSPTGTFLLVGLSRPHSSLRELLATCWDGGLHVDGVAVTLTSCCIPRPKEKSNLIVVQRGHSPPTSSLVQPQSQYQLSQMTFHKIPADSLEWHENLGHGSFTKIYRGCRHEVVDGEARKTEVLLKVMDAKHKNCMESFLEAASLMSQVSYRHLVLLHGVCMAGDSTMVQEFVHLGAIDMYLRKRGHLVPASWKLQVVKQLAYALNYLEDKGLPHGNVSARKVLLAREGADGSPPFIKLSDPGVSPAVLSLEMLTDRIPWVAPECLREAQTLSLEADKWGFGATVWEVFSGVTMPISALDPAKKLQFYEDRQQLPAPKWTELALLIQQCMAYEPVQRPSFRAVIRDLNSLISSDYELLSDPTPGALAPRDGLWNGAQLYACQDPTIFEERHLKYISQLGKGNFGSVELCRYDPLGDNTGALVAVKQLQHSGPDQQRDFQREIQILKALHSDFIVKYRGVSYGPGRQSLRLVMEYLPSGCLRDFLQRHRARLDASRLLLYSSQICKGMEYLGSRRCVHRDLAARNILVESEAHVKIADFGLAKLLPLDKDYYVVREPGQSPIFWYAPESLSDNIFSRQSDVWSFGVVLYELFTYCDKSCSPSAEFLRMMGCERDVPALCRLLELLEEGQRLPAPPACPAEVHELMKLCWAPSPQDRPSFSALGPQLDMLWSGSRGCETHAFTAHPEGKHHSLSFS

[12] = molecular target: Tyrosine-protein kinase Fyn (Homo sapiens) (UniProt P06241); test: Inhibition of human FYN assessed as percent of control at 2000 nM by KINOMEscan assay relative to control; set-up: scale not given: the % may be the effect or the level left
[13] = molecular target: Mitogen-activated protein kinase 12 (Homo sapiens) (UniProt P53778); test: Inhibition of human p38-gamma assessed as percent of control at 2000 nM by KINOMEscan assay relative to control; set-up: scale not given: the % may be the effect or the level left
[14] = molecular target: Ephrin type-A receptor 4 (Homo sapiens) (UniProt P54764); test: Inhibition of human EPHA4 assessed as percent of control at 2000 nM by KINOMEscan assay relative to control; set-up: scale not given: the % may be the effect or the level left
CWR22R = test: Antitumor activity against human 22Rv1 cells expressing AR-V7 xenografted in male nude mouse assessed as suppression of tumor growth at 50 mg/kg, po administered daily for 15 days; type: functional, organism-based
[15] = system: Phosphatidylinositol 4,5-bisphosphate 3-kinase catalytic subunit alpha isoform (Homo sapiens), P42336 [I800L]; test: Inhibition of human PIK3CA I800L mutant assessed as percent of control at 2000 nM by KINOMEscan assay relative to control; set-up: scale not given: the % may be the effect or the level left
Sequence of Phosphatidylinositol 4,5-bisphosphate 3-kinase catalytic subunit alpha isoform (Homo sapiens), P42336 [I800L] (P42336 whole entry I800L, canonical isoform): as the sequence (P42336 whole entry E542K, canonical isoform) above, with K542E, I800L counted along it

[16] = molecular target: Dual specificity protein kinase CLK1 (Homo sapiens) (UniProt P49759); test: Inhibition of human CLK1 assessed as percent of control at 2000 nM by KINOMEscan assay relative to control; set-up: scale not given: the % may be the effect or the level left
[17] = molecular target: Cyclin-dependent kinase 8 (Homo sapiens) (UniProt P49336); conditions: INHIBITOR, dose 2000.0 nM
Description: Inhibition of human CDK8 at 2000 nM by KINOMEscan assay

[18] = molecular target: Hepatocyte growth factor receptor (Homo sapiens) (UniProt P08581); test: Inhibition of human MET assessed as percent of control at 2000 nM by KINOMEscan assay relative to control; set-up: scale not given: the % may be the effect or the level left
[19] = molecular target: 5'-AMP-activated protein kinase catalytic subunit alpha-2 (Homo sapiens) (UniProt P54646); test: Inhibition of human AMPK-alpha2 assessed as percent of control at 2000 nM by KINOMEscan assay relative to control; set-up: scale not given: the % may be the effect or the level left
[20] = system: Receptor-type tyrosine-protein kinase FLT3 (Homo sapiens), P36888 [K663Q]; test: Inhibition of human FLT3 K663Q mutant assessed as percent of control at 2000 nM by KINOMEscan assay relative to control; set-up: scale not given: the % may be the effect or the level left
[21] = molecular target: Myosin-IIIa (Homo sapiens) (UniProt Q8NEV4); test: Inhibition of human MYO3A assessed as percent of control at 2000 nM by KINOMEscan assay relative to control; set-up: scale not given: the % may be the effect or the level left
Sequence of Myosin-IIIa (Homo sapiens) (Q8NEV4 whole entry): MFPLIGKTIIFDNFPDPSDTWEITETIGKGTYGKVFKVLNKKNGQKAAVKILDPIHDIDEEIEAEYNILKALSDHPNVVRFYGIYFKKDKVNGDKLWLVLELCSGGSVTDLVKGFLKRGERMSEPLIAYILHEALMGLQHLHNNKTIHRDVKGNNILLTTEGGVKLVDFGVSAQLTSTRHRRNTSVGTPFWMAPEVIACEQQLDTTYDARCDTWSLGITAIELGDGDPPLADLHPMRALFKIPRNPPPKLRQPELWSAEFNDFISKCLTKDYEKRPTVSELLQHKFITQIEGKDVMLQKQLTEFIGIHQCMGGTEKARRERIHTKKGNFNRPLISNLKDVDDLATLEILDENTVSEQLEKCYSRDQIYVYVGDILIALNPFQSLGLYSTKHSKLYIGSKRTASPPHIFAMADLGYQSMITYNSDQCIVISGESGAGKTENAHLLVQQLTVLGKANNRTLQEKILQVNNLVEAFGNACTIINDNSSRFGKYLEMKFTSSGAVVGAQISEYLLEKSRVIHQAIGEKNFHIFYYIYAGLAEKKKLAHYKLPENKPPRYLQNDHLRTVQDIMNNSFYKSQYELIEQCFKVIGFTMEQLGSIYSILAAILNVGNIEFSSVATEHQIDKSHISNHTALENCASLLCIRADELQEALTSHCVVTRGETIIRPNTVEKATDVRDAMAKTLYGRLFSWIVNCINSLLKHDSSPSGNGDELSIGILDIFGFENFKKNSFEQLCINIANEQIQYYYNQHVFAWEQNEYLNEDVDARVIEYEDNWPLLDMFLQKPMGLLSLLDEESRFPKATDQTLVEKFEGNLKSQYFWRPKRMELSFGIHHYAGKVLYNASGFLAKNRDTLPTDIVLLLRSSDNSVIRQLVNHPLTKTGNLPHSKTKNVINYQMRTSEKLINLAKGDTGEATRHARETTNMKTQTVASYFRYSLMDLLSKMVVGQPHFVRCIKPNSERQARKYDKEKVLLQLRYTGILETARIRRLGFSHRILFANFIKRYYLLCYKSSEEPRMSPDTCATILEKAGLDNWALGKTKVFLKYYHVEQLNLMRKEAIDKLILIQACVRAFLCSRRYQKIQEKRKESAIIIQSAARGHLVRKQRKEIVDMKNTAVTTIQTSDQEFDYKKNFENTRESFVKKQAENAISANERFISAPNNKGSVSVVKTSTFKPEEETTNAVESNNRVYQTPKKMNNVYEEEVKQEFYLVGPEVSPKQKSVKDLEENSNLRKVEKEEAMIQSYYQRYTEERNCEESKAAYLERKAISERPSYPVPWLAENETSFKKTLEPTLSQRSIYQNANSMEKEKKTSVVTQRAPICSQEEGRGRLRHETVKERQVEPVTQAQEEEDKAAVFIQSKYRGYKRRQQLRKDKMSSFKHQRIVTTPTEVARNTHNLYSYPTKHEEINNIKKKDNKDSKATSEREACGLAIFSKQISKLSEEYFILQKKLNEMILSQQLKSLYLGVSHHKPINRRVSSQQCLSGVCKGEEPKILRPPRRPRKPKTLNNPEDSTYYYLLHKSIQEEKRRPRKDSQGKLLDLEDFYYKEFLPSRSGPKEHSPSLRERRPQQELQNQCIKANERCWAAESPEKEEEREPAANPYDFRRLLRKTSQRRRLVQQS

[22] = molecular target: Fibroblast growth factor receptor 1 (Homo sapiens) (UniProt P11362); test: Inhibition of human FGFR1 assessed as percent of control at 2000 nM by KINOMEscan assay relative to control; set-up: scale not given: the % may be the effect or the level left

For `CN(C)C(=O)c1ccc(N2CCCN(c3ccnc4sc(C(N)=O)c(N)c34)CC2)cc1`, which Activity [1] is on record?
Its Activity is 95% and 89%.

What about the Activity (Myc-CaP) of the same compound?
Its Activity is “Active”.

What about the Activity [2] of the same compound?
Its Activity is 95% and 100%.

And the Activity [3]?
The Activity was 100% and 97%.

What about the Activity [4] of the same compound?
Its Activity is 92% and 74%.

What about the Activity [5] of the same compound?
The Activity was 98% and 91%.

And the Activity [6]?
The Activity was 99% and 96%.

And the Activity [7]?
The Activity was 41% and 34%.

What about the Activity [8] of the same compound?
The Activity was 91% and 100%.

And the Activity [9]?
The Activity was 94% and 79%.

And the Activity [10]?
The Activity was 99% and 97%.

And the Activity [11]?
The Activity was 83% and 80%.

What about the Activity [12] of the same compound?
The Activity was 99% and 97%.

And the Activity [13]?
The Activity was 98% and 100%.

What about the Activity [14] of the same compound?
The Activity was 100%.

What about the Activity (CWR22R) of the same compound?
Its Activity is “Active”.

What about the Activity [15] of the same compound?
The Activity was 97% and 74%.

And the Activity [16]?
Its Activity is 88% and 68%.

What about the inhibition [17] of the same compound?
Its inhibition is over 65%.

What about the Activity [18] of the same compound?
Its Activity is 99% and 92%.

What about the Activity [19] of the same compound?
Its Activity is 80% and 95%.

And the Activity [20]?
The Activity was 96% and 91%.

And the Activity [21]?
The Activity was 100%.

What about the Activity [22] of the same compound?
The Activity was 98% and 92%.
